In PMC12663368 (Nature Communications, 2025):

How the values were obtained:
Type in all cases: cell-based
[1] = system: SARS-CoV-2 BA.5 Lineage D (Mpro P252L)
[2] = system: SARS-CoV-2 Wuhan-like Lineage A (Mpro Δ23G/T45I); details: for IC50: read-out: Mean of IC50 values ± SD
[3] = system: SARS-CoV-2 Wuhan-like Lineage B (Mpro M49L)
[4] = system: SARS-CoV-2 BA.5 Lineage C (Mpro S144A); details: for IC50: read-out: Mean of IC50 values ± SD
[5] = read-out: Mean of IC50 values ± SD

For Cn1cnc(Cn2c(=O)[nH]/c(=N\c3cc4cn(C)nc4cc3Cl)n(Cc3cc(F)c(F)cc3F)c2=O)n1 [ensitrelvir], the “Resistance level (class by IC50 fold-change)” value [1] was “no meaningful shift”, the “Fold-change relative to wild-type” value [2] was 32.06 fold and the IC50 [2] was 16.7 ± 2.29 µM. The “Fold-change relative to wild-type” value [3] was 60.08 fold, the IC50 [3, 5] was 31.2 ± 1.06 µM and the “Fold-change relative to wild-type” value [4] was 28.84 fold. It also gave an IC50 [4] of 25.4 ± 8.74 µM.

With CC(C)(C)[C@H](NC(=O)C(F)(F)F)C(=O)N1C[C@H]2[C@@H]([C@H]1C(=O)N[C@H](C#N)C[C@@H]1CCNC1=O)C2(C)C [nirmatrelvir] the “Fold-change relative to wild-type” value [1] was 3.83 fold, the IC50 [1, 5] was 18.6 ± 0.48 µM and the “Fold-change relative to wild-type” value [2] was 0.18 fold. For the same compound, the IC50 [2] was 1.4 ± 0.1 µM, the “Resistance level (class by IC50 fold-change)” value [3] was “no meaningful shift” and the “Fold-change relative to wild-type” value [4] was 7.60 fold. The IC50 [4] was 37 ± 0.9 µM.

For remdesivir, the “Fold-change relative to wild-type” value [1] was 3.41 fold.
